Laboratory results taken from patent US8569378B2, “p27 protein inducer” (Chugai Seiyaku Kabushiki Kaisha, priority 2007, dated 2013).
pEC50: −log10 of the molar value.

Tests used:
p27 protein [1] = assay: Quantification of p27 protein by ELISA (p27 protein-inducing activity, EC50); format: cell-based, human; details: NCI-H460 cells, 48 hours, p27 sandwich ELISA; Table 1-2
Procedure: The p27 protein-inducing activities of the compounds or salts listed in Tables 1-1, 1-2 and 2 below were measured as follows.
(§1) Preparation of Cell Lysate:
NCI-H460 human non-small cell lung cancer cells (ATCC HTB-177) were plated in 6-well plates at 2×10^5 cells/well and incubated overnight. Then, the test substance was added to the medium to a final concentration of 10000 nmol/L, 3000 nmol/L, 100 nmol/L, 30 nmol/L, 10 nmol/L, 3 nmol/L, 1 nmol/L, 0.3 nmol/L, 0.1 nmol/L, 0.03 nmol/L or 0.01 nmol/L and the cells were incubated at 37° C. in 5% CO2 for 48 hours. 150 μL of Cell Lysis Buffer (catalog no. 9803, Cell Signaling) which had been diluted to 1-fold concentration (1 mM PMSF was added immediately before use) was added, and the mixture was allowed to stand on ice for 10 minutes. The Cell Lysis Buffer in which cells were lysed was collected together with cells with a scraper and transferred to a new tube. It was centrifuged at 15000 rpm for 10 minutes at 4° C. and the supernatant was then transferred to a new tube.
Quantification by Sandwich ELISA:
Anti-p27 monoclonal antibody (catalog no. 71-9600, Zymed) was diluted to 5 μg/mL in 50 mM carbonate coating buffer (0.4 g/L NaCO3, 0.73 g/L NaHCO3 and 0.04 g/L NaN3 in distilled water), and it was then added at 50 μL/well and allowed to stand overnight at 4° C. to bind the antibody. After washing three times with PBS, 200 μL of blocking solution (0.2% I-Block in PBS) was added to each well. After 1 hour of incubation at room temperature, washing with PBS-T (0.05% Tween 20 in PBS) was performed three times. The sample and recombinant p27 protein standard were serially diluted in Cell Lysis Buffer (catalog no. 9803, Cell Signaling) which had been diluted to 1-fold concentration (1 mM PMSF was added immediately before use), and it was then added at 100 μL/well. After 1 hour of incubation at room temperature, washing with 200 μL of PBS-T was performed three times. HRP-labeled anti-p27 antibody (product no. 610243, BD Transdution Laboratories) was diluted 1:2500 (i.e. to 0.1 μg/mL) in 0.2% I-Block/0.05% PBS-T, and it was then added at 100 μL/well. After 1 hour of incubation at room temperature, washing with 200 μL of PBS-T was performed three times. Chromogenic substrate solution (TMB One Solution, catalog no. G7431, Promega) was added at 100 μL/well and allowed to develop a color reaction at room temperature. After stopping the reaction with 50 μL of 1N H2SO4, the absorbance at 450 nm was measured.
Calculation of EC50 Values:
A standard response curve was generated by plotting the amount of p27 protein against the concentration of the test substance. The basal level of response was defined as 0%, while the plateau level where the induction of p27 protein had been maximized was defined as 100%. Finally, the test substance concentration at which 50% induction was achieved was calculated, and it was defined as EC50.

p27 protein [2] = assay: Detection of p27 protein by Western blotting in DU-145 cell lysate; format: cell-based; details: DU-145 human prostate cancer cells; 0.3-30 μmol/L; 48 hours; FIG. 2
Procedure: (§2) The p27 protein-inducing activities of KIP-10 (the compound represented by formula (C)) and KIP-12 (the compound represented by formula (D)) were measured as follows.
as §1
(§3) NCI-H460 human non-small cell lung cancer cells (ATCC HTB-177), DU-145 human prostate cancer cells (ATCC HTB-81) or HCT116 human colon cancer cells (ATCC CCL-247) were plated in 6-well plates at 2×10^5 cells/well and incubated overnight. Then, the test substance was added to the medium to a final concentration of 0.3 μmol/L, 1 μmol/L, 3 μmol/L, 10 μmol/L or 30 μmol/L or was not added and the cells were incubated at 37° C. in 5% CO2 for 48 or 24 hours. The cells were washed with cold PBS(−), which was then completely removed. 0.35 mL of Cell Lysis Buffer (catalog no. 9803, Cell Signaling) which had been diluted to 1-fold concentration was added, and the mixture was allowed to stand on ice for 10 minutes. The Cell Lysis Buffer in which cells were lysed was collected together with cells and subjected to sonication (speed 1, duty 80) for 10 seconds. […]
(§4) The total protein concentration in the supernatant was determined with a DC Protein Kit (catalog no. 500-0122, Bio-Rad). […] After washing three times with TBS-T, it was immersed in ECL kit reagent (catalog no. RPN2132, Amersham) for 1 minute and the band was detected with a chemiluminescence reader. […]

p27 protein [3] = assay: Detection of p27 protein by Western blotting in NCI-H460 cell lysate; format: cell-based, human; details: NCI-H460 cells; 0.3-30 μmol/L; KIP-10 48 hours, KIP-12 24 hours; FIGS. 1 and 3
Procedure: as §2, §1, §3, §4

p27 protein [4] = assay: Detection of p27 protein by Western blotting in HCT116 cell lysate; format: cell-based; details: HCT116 human colon cancer cells; 0.3-30 μmol/L; 24 hours; FIG. 4
Procedure: as §2, §1, §3, §4

| Structure (SMILES) | pEC50 (p27 protein [1]) | p27 protein-inducing activity (Western blotting) (p27 protein [2]) | p27 protein-inducing activity (Western blotting) (p27 protein [3]) | p27 protein-inducing activity (Western blotting) (p27 protein [4]) |
| --- | --- | --- | --- | --- |
| Cc1c(Cc2ccccc2N)c(=O)oc2cc(OC(=O)N(C)C)c(Cl)cc12 [KIP-10, dimethylcarbamic acid 3-(2-aminobenzyl)-6-chloro-4-methyl-2-oxo-2H-1-benzopyran-7-yl ester] | 5.22 | sufficiently high p27 protein-inducing activity | sufficiently high p27 protein-inducing activity |  |
| Cc1nn(Cc2ccc(C(=O)Nc3nc4ccccc4s3)cc2)c(C)c1[N+](=O)[O-] [KIP-12] |  |  | sufficiently high p27 protein-inducing activity | sufficiently high p27 protein-inducing activity |
